From patent EP1065215A1 (Boehringer Ingelheim International GmbH, priority 1999, dated 2001)

Legend:
Assay in all cases: Displacement of [3H]AMPA binding on membranes of transfected HEK293 cells
Conditions in all cases: mean ± S.E.; for Hill slope: displacement of [3H]AMPA binding, Prism software
[1] = molecular target: T1, GluR4 (4-19) (Homo sapiens, UniProt P48058)
T1 construct: expressed in transfected cells; host or cells: HEK293, plasmid pHGluR4/pcDNA3
Protocol: (§1) In order to examine the pharmacological identity of the stably expressed recombinant receptors, competitive binding studies were performed.
(§2) The binding studies were carried out as outlined previously (Keinänen et al., 1990; Fletcher et al., 1995). […] The pellets were resuspended in 50 mM Tris-HCl (pH 7.5) and repeated the homogenization and centrifugation. […] The cell membranes were incubated with the radioligand for 60 minutes on ice, and subsequently collected by rapid filtration through GF/C filters. […] The filters were washed rapidly with cold assay buffer. The radioactivity retained in the filters was measured by liquid scintillation counting.

[2] = molecular target: T2, GluR3 (5-42) (Homo sapiens, UniProt P42263)
T2 construct: expressed in transfected cells; host or cells: HEK293, plasmid pHGluR3/pcDNA3
Protocol: as §1, §2

[3] = molecular target: T3, GluR1 (1-24) (Homo sapiens, UniProt P42261)
T3 construct: expressed in transfected cells; host or cells: HEK293, plasmid pHGluR1/pcDNA3
Protocol: as §1, §2

[4] = displacement of [3H]AMPA, Cheng-Prusoff equation, 0.1 M KSCN, on ice

T1 sequence (P48058 21-902): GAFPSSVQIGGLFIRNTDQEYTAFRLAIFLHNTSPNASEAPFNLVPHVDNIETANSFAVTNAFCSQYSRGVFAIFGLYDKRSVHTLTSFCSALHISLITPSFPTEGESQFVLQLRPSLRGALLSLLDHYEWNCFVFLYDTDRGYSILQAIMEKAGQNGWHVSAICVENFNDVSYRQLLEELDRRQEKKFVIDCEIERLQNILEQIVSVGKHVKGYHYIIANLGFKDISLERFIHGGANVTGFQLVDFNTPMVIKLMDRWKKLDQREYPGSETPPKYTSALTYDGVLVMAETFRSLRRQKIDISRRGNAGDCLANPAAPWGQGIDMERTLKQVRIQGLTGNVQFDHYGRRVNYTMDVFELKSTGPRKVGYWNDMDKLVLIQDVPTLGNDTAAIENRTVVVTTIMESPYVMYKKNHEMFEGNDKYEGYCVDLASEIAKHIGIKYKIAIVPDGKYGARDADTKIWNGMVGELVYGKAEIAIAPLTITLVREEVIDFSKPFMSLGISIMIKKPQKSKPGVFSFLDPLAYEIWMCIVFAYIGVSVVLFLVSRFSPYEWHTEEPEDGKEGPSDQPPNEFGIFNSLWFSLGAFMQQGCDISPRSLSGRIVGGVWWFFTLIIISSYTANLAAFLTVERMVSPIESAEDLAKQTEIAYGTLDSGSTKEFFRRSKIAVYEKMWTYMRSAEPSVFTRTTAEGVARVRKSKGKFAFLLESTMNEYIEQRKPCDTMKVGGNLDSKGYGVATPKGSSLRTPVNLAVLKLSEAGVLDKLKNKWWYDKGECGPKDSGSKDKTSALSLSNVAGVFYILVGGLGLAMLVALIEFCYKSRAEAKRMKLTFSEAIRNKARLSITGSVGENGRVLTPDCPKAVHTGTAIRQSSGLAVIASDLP
T2 sequence (P42263 29-894 isoform P42263-2 limits assumed): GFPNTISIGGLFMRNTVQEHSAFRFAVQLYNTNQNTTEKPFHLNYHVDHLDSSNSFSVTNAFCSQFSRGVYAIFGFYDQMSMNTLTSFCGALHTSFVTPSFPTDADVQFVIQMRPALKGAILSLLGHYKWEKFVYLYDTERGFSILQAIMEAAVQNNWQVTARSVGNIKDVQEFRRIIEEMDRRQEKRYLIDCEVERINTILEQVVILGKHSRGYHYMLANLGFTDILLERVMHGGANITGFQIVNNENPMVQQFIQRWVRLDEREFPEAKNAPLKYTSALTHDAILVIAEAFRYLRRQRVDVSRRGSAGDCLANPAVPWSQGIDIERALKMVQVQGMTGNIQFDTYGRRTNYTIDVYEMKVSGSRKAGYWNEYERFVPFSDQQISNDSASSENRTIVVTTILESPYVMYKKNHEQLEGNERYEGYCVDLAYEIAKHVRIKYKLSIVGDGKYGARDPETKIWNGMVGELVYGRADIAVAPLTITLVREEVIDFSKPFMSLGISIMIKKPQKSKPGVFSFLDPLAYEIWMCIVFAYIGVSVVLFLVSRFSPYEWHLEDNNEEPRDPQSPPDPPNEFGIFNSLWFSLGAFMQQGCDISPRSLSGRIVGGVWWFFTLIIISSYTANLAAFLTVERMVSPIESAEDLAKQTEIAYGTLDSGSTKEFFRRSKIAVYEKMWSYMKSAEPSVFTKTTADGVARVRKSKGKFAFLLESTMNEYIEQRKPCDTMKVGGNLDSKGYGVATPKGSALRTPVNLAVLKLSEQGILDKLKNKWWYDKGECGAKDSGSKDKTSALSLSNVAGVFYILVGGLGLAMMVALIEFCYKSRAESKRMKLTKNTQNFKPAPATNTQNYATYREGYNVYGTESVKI
T3 sequence (P42261 19-906 isoform P42261-2 limits assumed): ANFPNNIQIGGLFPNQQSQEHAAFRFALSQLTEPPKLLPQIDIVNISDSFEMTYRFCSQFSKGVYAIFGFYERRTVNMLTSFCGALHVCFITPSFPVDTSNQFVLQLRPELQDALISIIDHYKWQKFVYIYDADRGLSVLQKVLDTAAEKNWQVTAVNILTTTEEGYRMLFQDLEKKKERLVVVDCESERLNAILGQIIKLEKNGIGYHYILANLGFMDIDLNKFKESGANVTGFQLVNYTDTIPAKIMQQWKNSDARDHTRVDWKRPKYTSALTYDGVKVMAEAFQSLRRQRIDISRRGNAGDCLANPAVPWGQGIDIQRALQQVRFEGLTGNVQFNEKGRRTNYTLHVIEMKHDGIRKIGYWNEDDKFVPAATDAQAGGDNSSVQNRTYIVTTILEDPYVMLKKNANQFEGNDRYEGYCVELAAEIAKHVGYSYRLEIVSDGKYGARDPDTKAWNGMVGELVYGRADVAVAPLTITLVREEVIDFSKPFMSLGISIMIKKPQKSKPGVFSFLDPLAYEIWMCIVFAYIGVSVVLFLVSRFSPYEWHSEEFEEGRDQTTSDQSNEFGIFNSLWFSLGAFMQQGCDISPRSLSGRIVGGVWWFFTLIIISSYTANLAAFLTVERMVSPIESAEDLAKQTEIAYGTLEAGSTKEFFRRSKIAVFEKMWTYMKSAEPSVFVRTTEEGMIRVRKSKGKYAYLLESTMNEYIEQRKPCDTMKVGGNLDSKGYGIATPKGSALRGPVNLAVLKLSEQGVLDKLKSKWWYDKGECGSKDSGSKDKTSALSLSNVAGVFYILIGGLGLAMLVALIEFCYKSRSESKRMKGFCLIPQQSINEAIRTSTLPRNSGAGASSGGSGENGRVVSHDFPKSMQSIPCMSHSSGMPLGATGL

| SMILES | Hill slope [1] | Hill slope [2] | Hill slope [3] | Ki [1, 4] | Ki [2, 4] | Ki [3, 4] |
| --- | --- | --- | --- | --- | --- | --- |
| N#Cc1cc2[nH]c(=O)c(=O)[nH]c2cc1[N+](=O)[O-] [CNQX] | -0.86 ± 0.06 | -0.83 ± 0.06 | -1.00 ± 0.06 |  |  |  |
| CN1Cc2c(S(=O)(=O)N(C)C)cc3c(c2C1)NC(=O)C3=NO [NS257] | -0.83 ± 0.03 | -1.01 ± 0.22 | -0.85 ± 0.08 | 1.05 ± 0.078 µM | 0.967 ± 0.124 µM | 1.97 ± 0.148 µM |
